We go through two compounds from ChEMBL document CHEMBL5096151, “Phytocannabinoid Pharmacology: Medicinal Properties of Cannabis sativa Constituents Aside from the "Big Two"” (J Nat Prod, 2021).

The structures appear in SMILES notation. In brackets after ≈: the same amount, converted by molar mass.

Experiment [1] has as its target T1, Transient receptor potential cation channel subfamily V member 2 (Homo sapiens, UniProt Q9Y5S1).
T1 sequence (Q9Y5S1 whole entry): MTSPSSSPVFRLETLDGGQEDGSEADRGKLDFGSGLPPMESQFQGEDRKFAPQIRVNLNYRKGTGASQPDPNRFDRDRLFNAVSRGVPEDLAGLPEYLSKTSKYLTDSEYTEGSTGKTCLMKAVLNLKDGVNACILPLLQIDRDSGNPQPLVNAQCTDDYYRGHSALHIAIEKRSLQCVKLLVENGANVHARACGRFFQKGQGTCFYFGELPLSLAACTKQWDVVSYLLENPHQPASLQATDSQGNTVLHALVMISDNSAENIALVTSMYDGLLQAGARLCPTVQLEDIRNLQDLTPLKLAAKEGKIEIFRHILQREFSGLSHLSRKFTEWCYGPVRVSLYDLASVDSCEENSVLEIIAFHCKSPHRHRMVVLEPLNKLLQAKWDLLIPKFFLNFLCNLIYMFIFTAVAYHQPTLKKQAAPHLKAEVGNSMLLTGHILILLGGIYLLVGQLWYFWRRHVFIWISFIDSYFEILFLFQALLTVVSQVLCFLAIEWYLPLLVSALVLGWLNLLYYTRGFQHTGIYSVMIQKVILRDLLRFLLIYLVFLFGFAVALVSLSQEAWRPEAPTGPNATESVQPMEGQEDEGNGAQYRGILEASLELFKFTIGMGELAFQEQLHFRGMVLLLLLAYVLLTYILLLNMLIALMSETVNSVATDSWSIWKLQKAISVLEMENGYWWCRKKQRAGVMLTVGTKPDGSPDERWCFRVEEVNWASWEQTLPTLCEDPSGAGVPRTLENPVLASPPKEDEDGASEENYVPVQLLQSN
In words: Agonist activity at ionomycin-stimulated TRPV2 (unknown origin) channel desensitization in presence of lysophosphatidylcholine.

Experiment [2] concerns the target T2, Transient receptor potential cation channel subfamily V member 4 (Homo sapiens, UniProt Q9HBA0). In words: Agonist activity at ionomycin-stimulated TRPV4 (unknown origin) channel desensitization in presence of 4alphaPDD.
In experiment [3] the target is T3, Cannabinoid receptor 1 (Homo sapiens, UniProt P21554). In words: Displacement of [35S]GTPgammaS from human CB1 receptor expressed in CHO cells. It counts as cell-based. For orientation: In a radioligand displacement assay an active substance lowers the binding of a labelled ligand.
T3 sequence (P21554 whole entry): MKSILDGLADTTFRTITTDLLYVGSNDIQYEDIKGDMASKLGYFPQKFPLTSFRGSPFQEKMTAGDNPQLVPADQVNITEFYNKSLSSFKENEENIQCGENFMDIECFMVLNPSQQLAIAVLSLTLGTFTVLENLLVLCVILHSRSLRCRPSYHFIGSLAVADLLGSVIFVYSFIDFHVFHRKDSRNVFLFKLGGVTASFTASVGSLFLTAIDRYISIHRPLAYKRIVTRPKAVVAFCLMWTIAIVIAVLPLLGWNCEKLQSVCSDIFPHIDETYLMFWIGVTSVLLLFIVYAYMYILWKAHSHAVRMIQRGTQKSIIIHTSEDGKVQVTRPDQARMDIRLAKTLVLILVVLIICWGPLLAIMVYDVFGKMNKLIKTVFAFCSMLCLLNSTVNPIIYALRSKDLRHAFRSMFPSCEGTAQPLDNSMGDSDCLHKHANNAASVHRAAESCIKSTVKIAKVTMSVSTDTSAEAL
Experiment [4] deals with T4, Transient receptor potential cation channel subfamily V member 3 (Homo sapiens) (UniProt Q8NET8).
T4 sequence (whole entry): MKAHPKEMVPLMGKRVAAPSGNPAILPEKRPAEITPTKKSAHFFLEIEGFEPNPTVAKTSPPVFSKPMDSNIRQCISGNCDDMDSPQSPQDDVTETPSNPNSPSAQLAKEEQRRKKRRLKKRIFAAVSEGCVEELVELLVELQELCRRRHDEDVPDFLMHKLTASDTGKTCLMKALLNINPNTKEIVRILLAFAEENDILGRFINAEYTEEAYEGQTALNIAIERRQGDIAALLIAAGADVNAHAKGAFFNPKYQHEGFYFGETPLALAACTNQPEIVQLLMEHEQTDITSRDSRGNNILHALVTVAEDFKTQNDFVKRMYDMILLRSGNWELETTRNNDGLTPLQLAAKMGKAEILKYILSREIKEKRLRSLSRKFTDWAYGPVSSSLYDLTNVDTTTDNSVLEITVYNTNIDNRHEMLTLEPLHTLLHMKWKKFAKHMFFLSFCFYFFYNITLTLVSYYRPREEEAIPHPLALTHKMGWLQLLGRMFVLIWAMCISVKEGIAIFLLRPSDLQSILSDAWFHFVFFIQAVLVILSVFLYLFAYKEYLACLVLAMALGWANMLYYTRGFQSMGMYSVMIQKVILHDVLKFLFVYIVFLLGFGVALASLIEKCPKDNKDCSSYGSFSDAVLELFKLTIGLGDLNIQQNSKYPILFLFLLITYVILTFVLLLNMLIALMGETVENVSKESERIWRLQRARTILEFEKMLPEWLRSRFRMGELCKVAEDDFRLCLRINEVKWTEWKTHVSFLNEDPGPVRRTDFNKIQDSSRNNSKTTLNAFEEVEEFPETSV
In words: Agonist activity at ionomycin-stimulated TRPV3 (unknown origin) activation assessed as efficacy relative to control.

Experiment [5] deals with Transient receptor potential cation channel subfamily V member 1 (Homo sapiens, UniProt Q8NER1). In words: Agonist activity at ionomycin-stimulated TRPV1 (unknown origin) activation assessed as efficacy relative to control.
Chain of Transient receptor potential cation channel subfamily V member 1 (Q8NER1 whole entry): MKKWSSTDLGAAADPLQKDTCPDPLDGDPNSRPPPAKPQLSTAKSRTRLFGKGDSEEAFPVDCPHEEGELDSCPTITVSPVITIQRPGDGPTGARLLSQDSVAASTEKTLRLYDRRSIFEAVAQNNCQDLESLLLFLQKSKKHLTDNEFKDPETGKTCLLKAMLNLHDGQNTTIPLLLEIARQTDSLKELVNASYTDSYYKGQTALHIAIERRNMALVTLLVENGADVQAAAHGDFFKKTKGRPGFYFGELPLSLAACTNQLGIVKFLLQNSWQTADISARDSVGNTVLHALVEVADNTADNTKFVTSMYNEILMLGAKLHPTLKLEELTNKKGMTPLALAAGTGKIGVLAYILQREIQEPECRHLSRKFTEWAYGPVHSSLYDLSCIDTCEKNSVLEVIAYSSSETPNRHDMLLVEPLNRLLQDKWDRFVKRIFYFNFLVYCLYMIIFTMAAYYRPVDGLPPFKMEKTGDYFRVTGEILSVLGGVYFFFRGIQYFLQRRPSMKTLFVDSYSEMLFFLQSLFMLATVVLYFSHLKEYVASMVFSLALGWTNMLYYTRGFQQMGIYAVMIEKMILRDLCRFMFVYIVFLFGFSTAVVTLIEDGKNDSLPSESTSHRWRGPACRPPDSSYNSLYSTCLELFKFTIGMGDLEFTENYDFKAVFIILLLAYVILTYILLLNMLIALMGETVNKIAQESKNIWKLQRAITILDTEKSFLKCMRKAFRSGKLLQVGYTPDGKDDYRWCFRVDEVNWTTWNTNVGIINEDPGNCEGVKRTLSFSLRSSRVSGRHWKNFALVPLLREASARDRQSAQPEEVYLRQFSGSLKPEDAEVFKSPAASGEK
Experiment [6] deals with T2, Transient receptor potential cation channel subfamily V member 4. In words: Agonist activity at ionomycin-stimulated TRPV4 (unknown origin) activation.
Experiment [7] is described as follows: Agonist activity at CB2 receptor in albino MF1 mouse vas deferens assessed as inhibition of electrically evoked vas deferens contraction by incubated for 13 mins followed by electrical stimulation for 2 mins.
The test system of experiment [8] is Staphylococcus aureus. In words: Antibiofilm activity against methicillin-resistant Staphylococcus aureus USA300 incubated for 24 hrs by crystal violet staining based assay. The class given is functional.
Experiment [9] addresses T5, Transient receptor potential cation channel subfamily V member 3 (Homo sapiens, UniProt Q8NET8).
T5 sequence (Q8NET8 whole entry): T4 sequence (whole entry)
In words: Agonist activity at ionomycin-stimulated TRPV3 (unknown origin) channel desensitization in presence of carvacrol.

Experiment [10] addresses Cannabinoid receptor 1 (Mus musculus) (UniProt P47746). In words: Agonist activity at CB1 receptor in albino MF1 mouse vas deferens assessed as inhibition of electrically evoked vas deferens contraction by incubated for 13 mins followed by electrical stimulation for 2 mins. The class given is functional. The note with it: filed as antagonist, time 15.0 min.
For experiment [11], the target named is T6, Transient receptor potential cation channel subfamily A member 1 (Homo sapiens, UniProt O75762). In words: Agonist activity at TRPA1 (unknown origin) channel desensitization in presence of isothiocyanate.
T6 sequence (O75762 whole entry): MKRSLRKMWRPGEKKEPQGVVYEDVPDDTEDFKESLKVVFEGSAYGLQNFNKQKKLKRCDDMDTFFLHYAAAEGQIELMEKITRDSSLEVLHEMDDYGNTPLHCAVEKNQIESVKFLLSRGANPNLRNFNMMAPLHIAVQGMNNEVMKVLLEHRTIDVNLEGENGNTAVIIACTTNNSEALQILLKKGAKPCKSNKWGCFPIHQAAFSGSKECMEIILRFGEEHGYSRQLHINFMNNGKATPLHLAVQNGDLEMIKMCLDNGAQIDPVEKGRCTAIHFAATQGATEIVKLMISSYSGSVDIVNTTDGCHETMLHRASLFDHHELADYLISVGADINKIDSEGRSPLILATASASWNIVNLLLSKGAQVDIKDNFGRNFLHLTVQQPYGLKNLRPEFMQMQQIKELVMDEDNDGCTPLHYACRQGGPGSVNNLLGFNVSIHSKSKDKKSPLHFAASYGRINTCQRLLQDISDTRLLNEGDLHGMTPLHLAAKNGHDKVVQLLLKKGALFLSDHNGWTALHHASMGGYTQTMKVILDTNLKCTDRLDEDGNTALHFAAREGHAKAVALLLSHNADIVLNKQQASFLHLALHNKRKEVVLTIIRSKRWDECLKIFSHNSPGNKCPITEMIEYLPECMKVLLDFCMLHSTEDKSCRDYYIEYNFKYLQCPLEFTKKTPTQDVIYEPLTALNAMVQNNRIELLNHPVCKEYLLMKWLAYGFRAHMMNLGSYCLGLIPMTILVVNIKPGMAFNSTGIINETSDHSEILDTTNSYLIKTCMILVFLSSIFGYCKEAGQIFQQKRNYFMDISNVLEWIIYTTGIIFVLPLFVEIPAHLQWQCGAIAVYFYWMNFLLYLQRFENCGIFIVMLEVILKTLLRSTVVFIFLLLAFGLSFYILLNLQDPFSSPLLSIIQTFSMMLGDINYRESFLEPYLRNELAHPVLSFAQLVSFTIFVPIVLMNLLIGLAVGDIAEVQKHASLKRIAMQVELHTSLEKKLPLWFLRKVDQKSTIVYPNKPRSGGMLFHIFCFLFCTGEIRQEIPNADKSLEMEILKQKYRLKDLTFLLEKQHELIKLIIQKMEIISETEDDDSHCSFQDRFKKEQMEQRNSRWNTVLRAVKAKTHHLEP
The target in experiment [12] is Cannabinoid receptor 1 (Rattus norvegicus, UniProt P20272). In words: Displacement of [35S]GTPgammaS from CB1 receptor in rat brain. It counts as tissue-based.
Chain of Cannabinoid receptor 1 (Rattus norvegicus, UniProt P20272) (P20272 whole entry): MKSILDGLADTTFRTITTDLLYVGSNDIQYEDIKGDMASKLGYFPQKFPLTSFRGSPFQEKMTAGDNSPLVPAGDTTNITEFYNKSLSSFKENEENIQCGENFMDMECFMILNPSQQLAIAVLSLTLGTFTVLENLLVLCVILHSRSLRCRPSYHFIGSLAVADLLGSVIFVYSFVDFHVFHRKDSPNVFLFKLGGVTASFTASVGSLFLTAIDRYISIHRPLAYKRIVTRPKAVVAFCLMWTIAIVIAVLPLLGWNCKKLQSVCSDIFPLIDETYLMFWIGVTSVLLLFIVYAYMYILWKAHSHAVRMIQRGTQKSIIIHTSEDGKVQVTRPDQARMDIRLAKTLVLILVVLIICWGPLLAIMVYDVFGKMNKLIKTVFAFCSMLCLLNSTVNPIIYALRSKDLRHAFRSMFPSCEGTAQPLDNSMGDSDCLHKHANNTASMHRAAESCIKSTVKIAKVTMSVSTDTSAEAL
Experiment [13] deals with T3, Cannabinoid receptor 1. In words: Displacement of [3H]-WIN55212-2 from human CB1 receptor transfected in CHO cell membrane incubated for 90 mins by Liquid scintillation counter analysis. The class given is cell membranes.
In another experiment the test system is Escherichia coli. In words: […] activity against Escherichia coli in presence of polymyxin. It counts as functional.
For experiment [14], the system named is Staphylococcus aureus. In words: Antibacterial activity against methicillin-resistant Staphylococcus aureus USA300 infected in mouse assessed as log10 reduction in bacterial load in spleen at 100 mg/kg ,ip measured for 30 mins. It counts as functional. The note with it: 0.5 h.
Experiment [15] has as its target T6, Transient receptor potential cation channel subfamily A member 1. In words: Agonist activity at TRPA1 (unknown origin) activation assessed as efficacy relative to control. The following applies: filed as agonist.
Experiment [16] concerns Staphylococcus aureus. In words: Antibiofilm activity against methicillin-resistant Staphylococcus aureus USA300 incubated for 24 hrs by CLSI based assay. The class given is functional.
Experiment [17] concerns the target T5, Transient receptor potential cation channel subfamily V member 3. In words: Agonist activity at ionomycin-stimulated TRPV3 (unknown origin) activation.
The target in experiment [18] is T2, Transient receptor potential cation channel subfamily V member 4. In words: Agonist activity at ionomycin-stimulated TRPV4 (unknown origin) activation assessed as efficacy relative to control.
Experiment [19] has as its target T7, Transient receptor potential cation channel subfamily V member 2 (Homo sapiens) (UniProt Q9Y5S1).
T7 sequence (whole entry): T1 sequence (Q9Y5S1 whole entry)
In words: Agonist activity at ionomycin-stimulated TRPV2 (unknown origin) activation assessed as efficacy relative to control. The note with it: filed as agonist.

For experiment [20], the target named is Alpha-2A adrenergic receptor (Homo sapiens) (UniProt P08913). In words: Displacement of [35S]GTPgammaS from human alpha2-adreno receptor receptor expressed in CHO cells. It counts as cell-based.
Chain of Alpha-2A adrenergic receptor (Homo sapiens) (P08913 whole entry): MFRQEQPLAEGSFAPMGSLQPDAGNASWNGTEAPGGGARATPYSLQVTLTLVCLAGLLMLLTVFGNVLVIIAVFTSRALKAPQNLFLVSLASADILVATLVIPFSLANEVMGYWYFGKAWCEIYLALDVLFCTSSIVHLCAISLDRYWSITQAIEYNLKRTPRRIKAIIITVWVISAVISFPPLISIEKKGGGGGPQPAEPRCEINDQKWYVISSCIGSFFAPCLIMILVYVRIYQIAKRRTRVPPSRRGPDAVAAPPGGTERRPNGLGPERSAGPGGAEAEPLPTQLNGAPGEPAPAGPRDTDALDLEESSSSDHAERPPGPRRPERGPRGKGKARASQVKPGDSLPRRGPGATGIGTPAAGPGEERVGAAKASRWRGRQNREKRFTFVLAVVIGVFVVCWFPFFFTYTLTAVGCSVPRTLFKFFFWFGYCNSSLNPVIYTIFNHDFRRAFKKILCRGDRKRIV
Experiment [21] concerns the target T1, Transient receptor potential cation channel subfamily V member 2. In words: Agonist activity at ionomycin-stimulated TRPV2 (unknown origin) activation.
The target of experiment [22] is T6, Transient receptor potential cation channel subfamily A member 1. In words: Agonist activity at TRPA1 (unknown origin) activation.
The target of the next experiment is Cannabinoid receptor 2 (Homo sapiens, UniProt P34972). In words: Binding affinity to human CB2 receptor assessed as inhibition constant.
Chain of Cannabinoid receptor 2 (P34972 whole entry): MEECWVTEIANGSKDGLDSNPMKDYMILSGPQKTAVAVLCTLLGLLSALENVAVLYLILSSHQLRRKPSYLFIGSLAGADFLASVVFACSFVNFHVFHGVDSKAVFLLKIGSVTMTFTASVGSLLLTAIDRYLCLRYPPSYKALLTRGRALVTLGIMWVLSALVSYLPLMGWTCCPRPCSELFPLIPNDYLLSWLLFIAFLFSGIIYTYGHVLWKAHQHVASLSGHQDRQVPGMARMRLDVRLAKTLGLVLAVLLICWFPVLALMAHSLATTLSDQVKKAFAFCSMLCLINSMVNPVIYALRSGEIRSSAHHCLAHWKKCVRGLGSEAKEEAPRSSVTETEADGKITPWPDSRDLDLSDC
In experiment [23] the target is T3, Cannabinoid receptor 1. In words: Binding affinity to CB1 (unknown origin) receptor assessed as inhibition constant.

T2 sequence (Q9HBA0 whole entry): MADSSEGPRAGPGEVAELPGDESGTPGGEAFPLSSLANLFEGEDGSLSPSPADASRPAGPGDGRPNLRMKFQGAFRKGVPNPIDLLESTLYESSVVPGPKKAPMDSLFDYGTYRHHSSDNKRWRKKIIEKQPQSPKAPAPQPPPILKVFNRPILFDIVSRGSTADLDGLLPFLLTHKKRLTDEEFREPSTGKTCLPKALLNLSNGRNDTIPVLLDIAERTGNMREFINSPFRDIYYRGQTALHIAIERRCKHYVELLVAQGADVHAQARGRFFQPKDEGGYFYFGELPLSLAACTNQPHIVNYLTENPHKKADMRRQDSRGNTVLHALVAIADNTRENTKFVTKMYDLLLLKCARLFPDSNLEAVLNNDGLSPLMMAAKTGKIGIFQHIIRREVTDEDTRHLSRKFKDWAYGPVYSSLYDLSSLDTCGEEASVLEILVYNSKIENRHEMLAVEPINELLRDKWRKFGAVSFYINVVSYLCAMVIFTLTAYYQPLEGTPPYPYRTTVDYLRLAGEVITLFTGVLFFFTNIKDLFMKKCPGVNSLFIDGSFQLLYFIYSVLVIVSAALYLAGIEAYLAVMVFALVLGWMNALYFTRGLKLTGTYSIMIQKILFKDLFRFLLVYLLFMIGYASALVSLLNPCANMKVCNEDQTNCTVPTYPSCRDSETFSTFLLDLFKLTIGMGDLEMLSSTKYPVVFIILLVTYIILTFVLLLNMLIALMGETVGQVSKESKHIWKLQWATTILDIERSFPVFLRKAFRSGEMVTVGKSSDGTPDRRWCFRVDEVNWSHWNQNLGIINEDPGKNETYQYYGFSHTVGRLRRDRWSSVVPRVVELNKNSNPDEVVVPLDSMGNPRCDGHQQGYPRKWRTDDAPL
Chain of Cannabinoid receptor 1 (Mus musculus) (P47746 whole entry): as the sequence (P20272 whole entry) above, with E95D counted along it

As for `CCCCCc1cc(O)c(C/C=C(\C)CCC=C(C)C)c(O)c1` [CANNABIGEROL], the IC50 stood at 1.5 µM in experiment [1], 1.3 µM in experiment [2], 66 µM in [9] and 13 µM in experiment [11]. Also, the Ki at Cannabinoid receptor 1 [3] stood at 2.6 µM; in experiment [7], 1.1 µM; on Cannabinoid receptor 1 [12], 0.44 µM. The Efficacy was 18% in experiment [4]; 34% in experiment [5]; 100% in experiment [15]; 24% in experiment [18]; 74% in experiment [19]. Also, the EC50 in experiment [6] came to 5.1 µM; in experiment [17], 1 µM; in experiment [21], 1.7 µM; in experiment [22], 0.7 µM. Further, the MIC was 0.5 mg/L (≈ 1.58 µM) against Staphylococcus aureus [8] and 4 mg/L with Escherichia coli. Further, the MIC90 against Staphylococcus aureus [8] and in the experiment with Staphylococcus aureus [16] was 4 mg/L (≈ 12.6 µM) each time. Also, the K in experiment [10] is 0.38 µM; at Cannabinoid receptor 1 [13], 1.04 µM. The “log(activity)” value in the experiment with Staphylococcus aureus [14] is given as 2.8. Further, the EC5 in experiment [20] worked out at 0.002 µM.
On to `CCCCCCCc1cc(O)c2c(c1)OC(C)(C)[C@@H]1CCC(C)=C[C@@H]21`, for which the Ki on Cannabinoid receptor 2 was found to be 0.0069 µM; at Cannabinoid receptor 1 [23], 0.13 µM.

A word on the IC50: it is the midpoint of a concentration-inhibition curve. By Ki is commonly meant the dissociation constant of the complex between target and ligand, obtained from inhibition or displacement. For orientation: EC50 means the concentration at which the effect is half-maximal. A lower EC50 goes with greater potency.
